Assay results: patent US5071750A, “Enzymatic process for preparing N-acetylneuraminic acid” (Forschungszentrum Juelich GmbH, priority 1989, dated 1991)

Experiments:
[1] = target: T1, N-acylglucosamine-2-epimerase (E.C. 5.1.3.8) (Sus scrofa, UniProt P17560); assay: relative activity of the epimerase (isomerization of GlcNAc to ManNAc) in the presence of pyruvate or Neu5Ac; type: biochemical; conditions: as a function of the concentration of the inhibiting substance (FIG. 2A)
T1 sequence (P17560 1-402): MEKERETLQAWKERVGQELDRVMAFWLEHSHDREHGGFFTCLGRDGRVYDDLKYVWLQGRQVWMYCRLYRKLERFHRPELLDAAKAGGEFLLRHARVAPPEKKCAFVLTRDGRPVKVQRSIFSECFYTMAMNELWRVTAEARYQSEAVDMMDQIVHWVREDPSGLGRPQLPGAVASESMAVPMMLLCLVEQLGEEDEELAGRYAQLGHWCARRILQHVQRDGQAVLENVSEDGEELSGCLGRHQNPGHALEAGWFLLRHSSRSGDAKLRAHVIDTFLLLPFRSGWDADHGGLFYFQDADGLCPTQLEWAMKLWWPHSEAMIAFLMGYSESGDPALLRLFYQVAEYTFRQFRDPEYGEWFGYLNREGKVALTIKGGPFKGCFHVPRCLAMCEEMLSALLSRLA

[2] = target: N-acetylneuraminic acid pyruvate lyase (E.C. 4.1.3.3) (Escherichia coli, UniProt P0A6L4); assay: reverse reaction (cleavage of Neu5Ac) by the lyase in the presence of pyruvate; type: biochemical; conditions: considerable excess of pyruvate in comparison with the Neu5Ac formed (FIG. 4)
Sequence of N-acetylneuraminic acid pyruvate lyase (E.C. 4.1.3.3) (P0A6L4 whole entry): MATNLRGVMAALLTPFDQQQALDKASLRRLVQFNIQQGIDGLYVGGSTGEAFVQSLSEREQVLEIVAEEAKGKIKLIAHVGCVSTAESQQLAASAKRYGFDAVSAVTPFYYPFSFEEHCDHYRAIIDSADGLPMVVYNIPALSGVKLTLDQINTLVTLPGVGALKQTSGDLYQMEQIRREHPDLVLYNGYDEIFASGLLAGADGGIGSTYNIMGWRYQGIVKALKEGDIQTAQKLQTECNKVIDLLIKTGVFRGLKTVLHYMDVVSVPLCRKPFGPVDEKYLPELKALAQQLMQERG
Excerpt: Because of the large excess of pyruvate, subsequent conversion of the ManNAc to Neu5Ac is promoted.
The Neu5Ac formed is, in accordance with the precision of the equilibrium, subject to more or less strong renewed cleavage by the reverse reaction. Although this reaction is inhibited by an excess of pyruvate (see FIG. 4), it appears advantageous continuously to pass reaction medium from the EMR over an ion exchange column and recycle the rest into the reactor. Alternate use of two columns is advantageous.

SMILES	inhibition of the epimerase-catalysed isomerization of GlcNAc to ManNAc [1]	inhibition of the reverse reaction of Neu5Ac formation [2]
CC(=O)N[C@H]1[C@H]([C@H](O)[C@H](O)CO)OC(O)(C(=O)O)C[C@@H]1O (stereo partly drawn) [N-acetylneuraminic acid]	inhibiting effect	
CC(=O)C(=O)O [pyruvic acid]	increasingly inhibited	strongly inhibited
